Here are results for two substances from patent US20160067295A1, “WALNUT EXTRACTS FOR NUTRACEUTICAL APPLICATIONS” (priority 2009, published 2016).

Test [1] concerns the target human blood (acetyl) cholinesterase (Homo sapiens, UniProt P22303). Particulars: for inhibition of acetyl cholinesterase (in words): 1 mg Phosphatidylcholine per ml test solution, FIG. 4, FIG. 5; for % activity of AchE: remaining activity within 5 minutes of incubation; for % activity of AchE / % inhibited part of activity of AchE: 1 mg/ml test solution; for % inhibited part of activity of AchE: within 5 minutes of incubation.

For test [2], the target named is T1, Amyloid [A]β1-40 aggregates (Homo sapiens, UniProt P05067).
T1 construct: Amyloid [A] β1-40 (Sigma-Aldrich, A 1075); purchased Sigma-Aldrich A 1075
In words: Defibrillization assay: dissolution of already formed amyloid Aβ-aggregates (Thioflavin T fluorescence). Particulars: 12 mg PC/ml test assay for walnut extracts, 12 mg PC Soy or PS Soy/ml; FIG. 3. Format: biochemical. Here is the method:
In this example, the highest concentrations of the walnut extracts (12 mg PC/ml test assay for the walnut extracts, 12 mg PC Soy or PS Soy/ml) were evaluated for their ability to reverse an already formed aggregate of amyloid-β.
Defibrillization efficacy is indicative for treatment of Alzheimer disease.
Dissolution of amyloid Aβ-aggregates by ES2008-021 and ES2008-022-Defibrillization assay
In a further extension of the test system, the above samples were evaluated for their ability to reverse an already formed aggregate of amyloid-β. Defibrillization efficacy is indicative for curing of Alzheimer disease.
Dissolution of amyloid Aβ-aggregates was induced by incubation with walnut extract. At each concentration of walnut extract (0.625, 1.25, 2.5, 5.0 or 7.5 μl ES2008-022 or 0.625, 1.25, 2.5, 5.0 or 7.5 μl from a stock solution containing 125 mg ES2008-021/ml) three samples were incubated and evaluated. […]
After 3 days each sample is mixed with 2 μM ([…]) Thioflavin T and 950 μl glycine/NaOH buffer (50 mM glycine, pH=9.0). Fluorescence was measured at ex 435 nm/em 485 nm.
Subtract fluorescence intensity for the corresponding “reagent blank samples” from each “active sample”. Compare the resulting fluorescence intensity with the fluorescence intensity measured for the control sample. […]

human blood (acetyl) cholinesterase, sequence (P22303 32-617 isoform P22303-2 limits assumed): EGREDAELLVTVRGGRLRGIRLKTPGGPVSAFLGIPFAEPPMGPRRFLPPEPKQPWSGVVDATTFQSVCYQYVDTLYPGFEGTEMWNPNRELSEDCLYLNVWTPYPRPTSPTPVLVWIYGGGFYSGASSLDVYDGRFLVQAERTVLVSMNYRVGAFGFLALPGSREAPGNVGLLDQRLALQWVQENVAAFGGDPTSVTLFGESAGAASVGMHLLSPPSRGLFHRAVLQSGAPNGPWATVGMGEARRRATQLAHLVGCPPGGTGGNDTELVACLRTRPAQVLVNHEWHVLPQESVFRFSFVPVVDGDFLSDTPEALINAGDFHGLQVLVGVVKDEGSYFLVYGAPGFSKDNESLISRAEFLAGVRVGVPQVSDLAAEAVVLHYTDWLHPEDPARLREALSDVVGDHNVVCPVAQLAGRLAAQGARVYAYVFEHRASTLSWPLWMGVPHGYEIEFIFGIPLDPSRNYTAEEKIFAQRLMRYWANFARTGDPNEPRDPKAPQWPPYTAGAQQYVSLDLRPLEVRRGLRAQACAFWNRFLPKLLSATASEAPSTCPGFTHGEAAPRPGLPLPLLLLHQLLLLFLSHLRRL
T1 sequence (P05067 672-711 limits assumed): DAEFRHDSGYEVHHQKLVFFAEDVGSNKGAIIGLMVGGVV

For the substance phosphatidylserine [PS Soy Bean], in test [1], the “inhibition of acetyl cholinesterase (in words)” value is “almost inactive”, the “% activity of AchE” value is on record as 94.0% and the “% inhibited part of activity of AchE” value is 6.0%. Also, the “defibrillization efficacy (in words)” value in test [2] is “less potent in defibrillization”.
Regarding phosphatidylcholine [PC Soy Bean], in test [1], the “inhibition of acetyl cholinesterase (in words)” value was “almost inactive”, the “% activity of AchE” value amounted to 88.2% and the “% inhibited part of activity of AchE” value is given as 11.8%. Besides, in test [2], the “defibrillization efficacy (in words)” value was “less potent in defibrillization”.
